Assay results: ChEMBL document CHEMBL1201862, “PubChem BioAssay data set” (2004)
Calls of active or inactive are those of the source.

How the values were obtained:
[1] = biological target: DNA dC->dU-editing enzyme APOBEC-3A (Homo sapiens, UniProt P31941); assay: Dose Response confirmation of small molecule APOBEC3A DNA Deaminase Inhibitors via a fluorescence-based single-stranded DNA deaminase assay. [Related pubchem assays (depositor defined):AID493011, AID493024]; type: functional
[2] = biological target: Histone-lysine N-methyltransferase NSD2 (Homo sapiens, UniProt O96028); type: biochemical
Chain of Histone-lysine N-methyltransferase NSD2 (O96028 whole entry): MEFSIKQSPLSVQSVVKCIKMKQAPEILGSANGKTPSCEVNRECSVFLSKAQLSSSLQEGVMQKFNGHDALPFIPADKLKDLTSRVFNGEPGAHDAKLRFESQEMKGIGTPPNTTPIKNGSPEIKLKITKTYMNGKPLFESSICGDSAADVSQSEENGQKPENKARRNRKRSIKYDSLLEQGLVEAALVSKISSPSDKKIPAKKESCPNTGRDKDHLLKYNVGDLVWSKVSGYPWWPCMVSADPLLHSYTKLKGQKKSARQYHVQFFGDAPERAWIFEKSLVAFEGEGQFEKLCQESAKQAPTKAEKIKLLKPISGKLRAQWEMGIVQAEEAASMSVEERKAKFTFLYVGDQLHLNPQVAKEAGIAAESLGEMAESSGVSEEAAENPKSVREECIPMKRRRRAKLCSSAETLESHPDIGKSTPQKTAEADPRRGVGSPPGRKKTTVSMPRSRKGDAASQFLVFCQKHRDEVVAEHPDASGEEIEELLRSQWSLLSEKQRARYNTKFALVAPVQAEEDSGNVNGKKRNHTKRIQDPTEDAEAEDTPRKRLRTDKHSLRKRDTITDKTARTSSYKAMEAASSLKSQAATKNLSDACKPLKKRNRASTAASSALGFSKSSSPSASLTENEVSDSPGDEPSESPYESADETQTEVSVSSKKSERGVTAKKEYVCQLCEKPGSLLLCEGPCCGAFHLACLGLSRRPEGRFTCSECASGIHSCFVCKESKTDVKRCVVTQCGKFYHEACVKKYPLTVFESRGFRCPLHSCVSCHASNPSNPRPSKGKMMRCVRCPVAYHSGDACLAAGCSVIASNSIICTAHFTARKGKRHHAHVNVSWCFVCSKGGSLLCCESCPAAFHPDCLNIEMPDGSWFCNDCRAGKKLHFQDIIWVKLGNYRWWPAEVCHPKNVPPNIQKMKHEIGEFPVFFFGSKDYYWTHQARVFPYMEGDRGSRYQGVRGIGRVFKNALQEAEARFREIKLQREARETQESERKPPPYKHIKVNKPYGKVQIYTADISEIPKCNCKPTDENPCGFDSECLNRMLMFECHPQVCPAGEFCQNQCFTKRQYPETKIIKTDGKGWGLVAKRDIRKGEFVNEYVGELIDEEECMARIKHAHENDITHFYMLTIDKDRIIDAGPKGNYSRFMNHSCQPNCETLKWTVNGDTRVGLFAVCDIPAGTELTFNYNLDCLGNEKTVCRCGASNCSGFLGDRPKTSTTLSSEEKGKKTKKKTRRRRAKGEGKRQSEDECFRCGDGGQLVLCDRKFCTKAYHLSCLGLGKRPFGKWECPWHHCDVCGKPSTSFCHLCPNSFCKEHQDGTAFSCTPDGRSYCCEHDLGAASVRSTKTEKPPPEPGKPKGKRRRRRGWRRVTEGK

[3] = biological target: DNA dC->dU-editing enzyme APOBEC-3G (Homo sapiens, UniProt Q9HC16); type: functional;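 note: Dose-response counterscreen measuring inhibition of APOBEC3G DNA deaminase activity, run while confirming APOBEC3A inhibitors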
Chain of DNA dC->dU-editing enzyme APOBEC-3G (Q9HC16 whole entry): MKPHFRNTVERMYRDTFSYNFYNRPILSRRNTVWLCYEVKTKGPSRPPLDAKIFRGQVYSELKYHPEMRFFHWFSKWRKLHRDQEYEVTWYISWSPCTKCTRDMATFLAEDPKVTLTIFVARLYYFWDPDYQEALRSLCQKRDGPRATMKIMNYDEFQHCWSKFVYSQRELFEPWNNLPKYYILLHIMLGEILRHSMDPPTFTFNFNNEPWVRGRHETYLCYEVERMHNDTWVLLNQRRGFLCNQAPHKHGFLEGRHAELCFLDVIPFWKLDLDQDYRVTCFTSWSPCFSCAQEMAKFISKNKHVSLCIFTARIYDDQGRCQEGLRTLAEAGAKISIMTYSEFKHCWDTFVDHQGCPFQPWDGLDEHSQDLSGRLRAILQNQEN

[4] = Luminescence Cell-Based Dose Retest to Confirm Inhibitors of Cancer Stem Cells. [Related pubchem assays (depositor defined):AID2717, AID2721]; type: functional; settings: Homo sapiens
[5] = biological target: Beta-galactosidase (Escherichia coli, UniProt Q8VNN2); assay: Dose response counterscreen for EBI2 assay utilizing the enzyme, b-galactosidase.; type: functional
Chain of Beta-galactosidase (Q8VNN2 whole entry): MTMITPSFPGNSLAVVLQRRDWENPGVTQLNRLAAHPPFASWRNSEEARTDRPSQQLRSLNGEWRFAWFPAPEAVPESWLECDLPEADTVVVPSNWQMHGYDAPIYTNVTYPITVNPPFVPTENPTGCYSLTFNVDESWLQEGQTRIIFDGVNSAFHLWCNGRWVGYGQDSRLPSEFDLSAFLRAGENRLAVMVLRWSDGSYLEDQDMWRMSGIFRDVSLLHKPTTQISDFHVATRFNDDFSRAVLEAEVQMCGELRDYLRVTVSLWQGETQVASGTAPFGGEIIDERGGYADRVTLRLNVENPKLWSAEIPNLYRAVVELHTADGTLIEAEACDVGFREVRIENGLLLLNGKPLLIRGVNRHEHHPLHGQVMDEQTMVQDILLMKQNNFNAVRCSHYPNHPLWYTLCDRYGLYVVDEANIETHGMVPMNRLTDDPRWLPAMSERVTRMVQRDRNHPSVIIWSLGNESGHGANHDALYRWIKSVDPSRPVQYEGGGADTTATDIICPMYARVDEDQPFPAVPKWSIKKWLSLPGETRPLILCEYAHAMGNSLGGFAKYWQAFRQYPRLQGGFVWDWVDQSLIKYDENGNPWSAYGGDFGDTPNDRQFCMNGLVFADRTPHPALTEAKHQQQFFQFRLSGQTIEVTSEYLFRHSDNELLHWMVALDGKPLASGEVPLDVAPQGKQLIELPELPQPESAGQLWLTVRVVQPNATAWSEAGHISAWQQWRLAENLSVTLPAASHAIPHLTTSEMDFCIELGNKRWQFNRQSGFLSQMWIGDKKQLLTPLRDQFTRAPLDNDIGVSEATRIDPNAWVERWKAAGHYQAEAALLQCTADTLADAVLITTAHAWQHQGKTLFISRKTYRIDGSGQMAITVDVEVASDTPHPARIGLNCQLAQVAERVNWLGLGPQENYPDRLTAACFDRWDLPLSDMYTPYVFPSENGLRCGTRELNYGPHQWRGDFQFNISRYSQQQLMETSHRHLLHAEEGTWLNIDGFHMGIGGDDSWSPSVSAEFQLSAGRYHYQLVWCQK

[6] = biological target: Fructose-bisphosphate aldolase (Mycobacterium tuberculosis, UniProt P9WQA3); assay: Fluorescence-based biochemical high throughput dose response assay for inhibitors of the fructose-bisphosphate aldolase (FBA) of M. tuberculosis.; type: functional
Chain of Fructose-bisphosphate aldolase (P9WQA3 whole entry): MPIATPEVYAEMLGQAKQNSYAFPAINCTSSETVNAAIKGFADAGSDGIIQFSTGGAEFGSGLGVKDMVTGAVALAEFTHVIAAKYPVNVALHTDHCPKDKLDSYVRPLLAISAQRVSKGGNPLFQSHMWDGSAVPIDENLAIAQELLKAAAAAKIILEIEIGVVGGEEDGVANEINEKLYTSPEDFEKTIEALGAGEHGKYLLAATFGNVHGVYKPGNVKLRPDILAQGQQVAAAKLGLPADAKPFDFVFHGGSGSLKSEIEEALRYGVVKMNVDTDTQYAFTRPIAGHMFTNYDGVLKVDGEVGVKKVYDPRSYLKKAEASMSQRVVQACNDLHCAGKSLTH

[7] = Late stage assay provider results from the probe development effort to identify inhibitors of the Plasmodium falciparum M17 Leucine Aminopeptidase (M17LAP): radiolabel-based cell-based dose response assay to identify compounds that inhibit P. falciparum growth in RBCs Set 2.; type: functional
[8] = system: A549; assay: viability loss in A549 cells – cell-based, plate reader, cherry-pick samples, cytotoxicity control, dose response (AID 687028); type: functional; settings: Homo sapiens
[9] = system: Vero; assay: viability loss in Vero cells – cell-based, plate reader, cherry-pick samples, cytotoxicity control, dose response (AID 687020); type: functional; settings: Chlorocebus sabaeus
[10] = biological target: Albumin (Bos taurus, UniProt P02769); assay: Counterscreen for inhibitors of T-cell receptor (TCR)-CD3 interaction: Fluorescence-based biochemical high throughput dose response assay to identify inhibitors of T-cell receptor (TCR)-CD3 interaction using a TAMRA-labeled BSA probe.; type: functional
Chain of Albumin (P02769 whole entry): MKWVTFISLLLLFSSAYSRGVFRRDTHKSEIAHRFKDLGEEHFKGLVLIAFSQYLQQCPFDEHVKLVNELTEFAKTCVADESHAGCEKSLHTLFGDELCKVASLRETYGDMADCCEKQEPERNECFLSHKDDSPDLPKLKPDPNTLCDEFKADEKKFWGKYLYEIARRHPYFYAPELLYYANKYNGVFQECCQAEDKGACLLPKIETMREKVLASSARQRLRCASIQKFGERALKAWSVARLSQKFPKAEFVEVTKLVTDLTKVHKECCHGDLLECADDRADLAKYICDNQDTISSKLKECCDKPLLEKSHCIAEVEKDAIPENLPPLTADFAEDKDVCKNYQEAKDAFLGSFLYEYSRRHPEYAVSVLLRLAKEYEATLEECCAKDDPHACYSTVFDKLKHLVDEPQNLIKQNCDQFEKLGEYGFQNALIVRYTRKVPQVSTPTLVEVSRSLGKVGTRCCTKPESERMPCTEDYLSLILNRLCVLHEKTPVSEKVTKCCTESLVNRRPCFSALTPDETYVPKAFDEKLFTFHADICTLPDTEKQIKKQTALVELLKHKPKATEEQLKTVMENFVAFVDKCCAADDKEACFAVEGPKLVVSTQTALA

Chain of DNA dC->dU-editing enzyme APOBEC-3A (P31941 whole entry): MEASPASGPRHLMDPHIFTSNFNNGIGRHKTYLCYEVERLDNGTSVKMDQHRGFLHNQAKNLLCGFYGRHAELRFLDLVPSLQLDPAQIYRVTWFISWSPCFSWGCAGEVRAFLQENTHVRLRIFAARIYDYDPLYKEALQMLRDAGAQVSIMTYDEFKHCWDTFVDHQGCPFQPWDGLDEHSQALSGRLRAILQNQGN

Cc1cc(/C=C2\C(=O)NC(=O)N(c3cccc(F)c3)C2=O)c(C)n1-c1cc(C(=O)O)cc(C(=O)O)c1
IC50 [1]: 16.8 µM (active)
AC50 [2]: > 20 µM (inactive)
IC50 [3]: 27.4 µM (active)

COC(=O)c1cc(=O)n(Cc2ccc(F)cc2)/c(=N/c2ccccc2)s1
AC50 [4]: 4.82 µM (active)
IC50 [5]: > 80 µM (inactive)

COC1=Nc2ccccc2N2CCN=C12
IC50 [6]: 2.07 µM (active)

CCCCc1ccc(CC(=O)NO)cc1
IC50 [7]: 4.3 µM (active)

O=C(NNC(=O)c1ccccc1O)c1ccccc1O
AC50 [8]: 2.46 µM (active)
AC50 [9]: 1.05 µM (active)
IC50 [10]: > 93.9 µM (inactive)
